The source made the active and inactive calls.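 How the source made its calls: active means plate Z score at or below -3, or inhibition of at least 30% at 20 µM; inactive means the rest.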
Assay: compounds lowering EGFP fluorescence in F442A cells, dose response, counter-screen for p/CIP destabilizer project (AID 2005);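 further: cells express EGFP alone from a CMV promoter as a counter screen for p/CIP-EGFP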
Details: F442A EGFP cells, EGFP fluorescence, 16 h, stronger effect = higher value

Row | Compound | inhibition (EGFP decrease, at 10 µM) | inhibition (at 20 µM)
1 | CCCCC(=O)NC(c1ccccc1Cl)c1ccc2cccnc2c1O (stereo not drawn) | 3.1% | -6.1% (inactive)
2 | COc1cc(OC)cc(C(=O)NCC(=O)OCC(=O)N2CCc3ccccc32)c1 | 8.9% | 20.7% (inactive)
3 | O=C(c1ccccc1)N1CCN(C(=O)c2cc3ccccc3o2)CC1 | 8.7% | 17.1% (inactive)
4 | CCc1ccc(CN2CCC(n3nccc3NC(=O)c3ccccc3C)CC2)cc1 | 22.7% | -0.4% (inactive)
5 | CC1CCC(NCc2ccco2)CC1 (stereo not drawn) | -0.9% | 18.9% (inactive)
6 | CS(=O)(=O)c1ccc(S(=O)CC(=O)OCc2ccccc2)c([N+](=O)[O-])c1 (stereo not drawn) | 16% | -0.6% (inactive)
7 | CC1CCCCC1NC(=O)CN1C(=O)c2ccccc2S1(=O)=O (stereo not drawn) | -11.2% | 13.6% (inactive)
8 | CN1CCn2c1nc(N1CCCCC1)nc2=O | 14.7% | 16.5% (inactive)
9 | CCN1C(=O)OC2(CCCCC2)C1(C)O (stereo not drawn) | -1.9% | 9% (inactive)
10 | Cc1ccc(-c2nnc(CSc3nc(C)nc4sc(C)c(C)c34)o2)cc1 | 12.1% | 14.3% (inactive)
11 | O=C(NC1=NCCS1)c1ccc(N2CCCC2=O)cc1 | -10.3% | -1.1% (inactive)
12 | O=C(CC12CC3CC(CC(C3)C1)C2)NCCN1CCOCC1 | 9.3% | 25.4% (inactive)
13 | COc1cccc(/C=N/n2c(C3CCCCC3)n[nH]c2=S)c1O | 1.4% | 27.7% (inactive)
14 | Cc1ccc(S(=O)(=O)Nc2cc(C(C)C)c(O)cc2C)cc1 | -16.2% | -4.5% (inactive)
15 | COc1ccc(C(NC(=O)CC(C)C)c2c(O)ccc3ccccc23)cc1 (stereo not drawn) | 18.1% | 5.2% (inactive)
16 | O=C(O)c1ccc(NC2=C/C(=N/S(=O)(=O)c3ccccc3)c3ccccc3C2=O)cc1 | 38.1% | 41.2%
17 | Cc1nc2ccccc2c(=O)n1-c1ccc(Cl)c(Cl)c1 | 12.7% | 12.7% (inactive)
18 | COc1cccc(CN2CC(C(=O)N(C)Cc3nc(C)cs3)CCC2=O)c1 (stereo not drawn) | -5.9% | 16.2% (inactive)
19 | C[C@@H](CN1C2=NC[C@H](Cc3ccc(O)cc3)N2C[C@H]1Cc1ccc(O)cc1)NC(=O)CCC1CCCCC1 | 19.4% | 28.8% (inactive)
20 | C=CCN(c1ccccc1)S(=O)(=O)c1ccc(Cl)c(C(=O)OCC(=O)NCCCN2CCCC2=O)c1 | 16.8% | 14.2% (inactive)

Row | Compound | inhibition (EGFP decrease, at 10 µM) | inhibition (at 20 µM)
21 | Cn1nnnc1SCC(=O)c1cccs1 | 11.4% | 9.9% (inactive)
22 | CC(OC(=O)C1CSC2(c3ccc(F)cc3)CCC(=O)N12)C(=O)NC(N)=O (stereo not drawn) | 48.2% | -5.1% (inactive)
23 | C/C(N)=C(/C#N)C(=O)CSc1nnnn1-c1ccc(C)cc1C | 18% | 3.2% (inactive)
24 | C(=N\NC1=Nc2cccc3cccc1c23)/c1ccccn1 | 10.2% | 12% (inactive)
25 | CCc1c(C)nc(SCC(=O)Nc2cccc(Br)c2)[nH]c1=O | 35.5% | 12.1% (inactive)
26 | O=C(NCCSc1ccccn1)c1ccc(Cl)cc1Cl | 19.7% | 3.4% (inactive)
27 | Cc1cccc(C)c1OCc1cc(C(=O)N2CCCC2c2nonc2C)no1 (stereo not drawn) | 17.2% | 11.5% (inactive)
28 | O=S(=O)(Nc1cc(Sc2ncn[nH]2)c(O)c2ccccc12)c1ccccc1 | 38.3% | 2.2% (inactive)
29 | CCC(=O)Nc1ccccc1Oc1ccccc1 | 12.2% | 19.7% (inactive)
30 | COc1ccc(OC)c(Nc2cc(C)c3ccccc3n2)c1 | 13.3% | 5.4% (inactive)
31 | Cc1ccc(OCC(=O)N2CCN(C(=O)c3ccco3)CC2)cc1 | 23.1% | 8.2% (inactive)
32 | CN(Cc1ccco1)C(=O)C1CCC(=O)N(CCc2cccc(F)c2)C1 (stereo not drawn) | 5.1% | 1.2% (inactive)
33 | O=S(=O)(NCc1cn2ccccc2n1)c1cccs1 | 8.4% | -3.1% (inactive)
34 | CCn1cnc2cc(NCc3cccc(OC)c3O)ccc21 | 16.7% | 10.7% (inactive)
35 | COCCn1c(SCC(=O)Nc2cc(C)on2)nnc1C(C)C | -1.7% | 0.9% (inactive)
36 | c1ccc(C2CC3CC4(CCCC4)N2O3)cc1 (stereo not drawn) | 17.2% | -10.7% (inactive)
37 | Cc1ccccc1CC(=O)Nc1sc(C(C)C)cc1C(=O)N1CCOCC1 | 4.2% | 14.3% (inactive)
38 | Cc1c(NC(=O)CN2C(=O)NC3(CCC(C)CC3)C2=O)c(=O)n(-c2ccccc2)n1C (stereo not drawn) | 5.2% | 0.8% (inactive)
39 | N#C/C(=C\c1cccnc1)C(=O)Nc1ccccc1[N+](=O)[O-] | 27.7% | 2% (inactive)

— PubChem BioAssay AID2005 (Sanford-Burnham Center for Chemical Genomics, 2009)
